Experiment: xn = mol fraction of the nth substance listed
Conditions: 100 kPa, Liquid; for viscosity: Concentric cylinders viscometry; for mass density: Vibrating tube method

CCCCCCn1cc[n+](C)c1.O=[N+]([O-])[O-] [1-hexyl-3-methylimidazolium nitrate] + CCCCCCO
Conditions | mass density [kg/m3] | viscosity [mPa·s]
293.15 K, x1 = 0.0816 | 859 | 12.97
293.15 K, x1 = 0.1604 | 894.1 | 24.15
293.15 K, x1 = 0.2391 | 925.7 | 39.81
293.15 K, x1 = 0.3502 | 965.4 | 76.74
293.15 K, x1 = 0.4409 | 994.2 | 123.03
293.15 K, x1 = 0.5592 | 1027.7 | 207.01
293.15 K, x1 = 0.6508 | 1050.9 | 296.48
293.15 K, x1 = 0.7395 | 1071.2 | 414.95
293.15 K, x1 = 0.8502 | 1093.7 | 581.11
293.15 K, x1 = 0.9391 | 1110 | 707.52
293.15 K, x1 = 1 | 1120.3 | 804.17
298.15 K, x1 = 0.0816 | 855.2 | 8.79
298.15 K, x1 = 0.1604 | 890.1 | 14.35
298.15 K, x1 = 0.2391 | 921.7 | 22.49
298.15 K, x1 = 0.3502 | 961.4 | 39.81
298.15 K, x1 = 0.4409 | 990.2 | 63.83
298.15 K, x1 = 0.5592 | 1023.9 | 109.9
298.15 K, x1 = 0.6508 | 1047.2 | 167.11
298.15 K, x1 = 0.7395 | 1067.7 | 243.78
298.15 K, x1 = 0.8502 | 1090.5 | 367.28
298.15 K, x1 = 0.9391 | 1107.1 | 473.22
298.15 K, x1 = 1 | 1117.5 | 545.25
303.15 K, x1 = 0.0816 | 851.5 | 6.53
303.15 K, x1 = 0.1604 | 886.2 | 10
303.15 K, x1 = 0.2391 | 917.6 | 15.42
303.15 K, x1 = 0.3502 | 957.2 | 26
303.15 K, x1 = 0.4409 | 986.1 | 39.54
303.15 K, x1 = 0.5592 | 1019.9 | 66.53
303.15 K, x1 = 0.6508 | 1043.3 | 101.16
303.15 K, x1 = 0.7395 | 1063.9 | 149.28
303.15 K, x1 = 0.8502 | 1087 | 233.88
303.15 K, x1 = 0.9391 | 1103.7 | 315.5
303.15 K, x1 = 1 | 1114.3 | 369.14
308.15 K, x1 = 0.0816 | 847.7 | 5.01
308.15 K, x1 = 0.1604 | 882.4 | 6.95
308.15 K, x1 = 0.2391 | 913.8 | 9.64
308.15 K, x1 = 0.3502 | 953.4 | 15.85
308.15 K, x1 = 0.4409 | 982.3 | 23.71
308.15 K, x1 = 0.5592 | 1016.1 | 40.36
308.15 K, x1 = 0.6508 | 1039.6 | 63.1
308.15 K, x1 = 0.7395 | 1060.2 | 95.67
308.15 K, x1 = 0.8502 | 1083.5 | 157.61
308.15 K, x1 = 0.9391 | 1100.4 | 216.41
308.15 K, x1 = 1 | 1111.1 | 257.59
313.15 K, x1 = 0.0816 | 843.9 | 3.92
313.15 K, x1 = 0.1604 | 878.5 | 5.11
313.15 K, x1 = 0.2391 | 909.9 | 6.87
313.15 K, x1 = 0.3502 | 949.6 | 10.64
313.15 K, x1 = 0.4409 | 978.5 | 15.42
313.15 K, x1 = 0.5592 | 1012.3 | 25.7
313.15 K, x1 = 0.6508 | 1035.8 | 40.74
313.15 K, x1 = 0.7395 | 1056.5 | 63.17
313.15 K, x1 = 0.8502 | 1079.9 | 107.2
313.15 K, x1 = 0.9391 | 1096.9 | 151.34
313.15 K, x1 = 1 | 1107.8 | 185.67
318.15 K, x1 = 0.0816 | 840.1 | 3.2
318.15 K, x1 = 0.1604 | 874.7 | 3.92
318.15 K, x1 = 0.2391 | 906.1 | 5.06
318.15 K, x1 = 0.3502 | 945.8 | 7.53
318.15 K, x1 = 0.4409 | 974.8 | 10.79
318.15 K, x1 = 0.5592 | 1008.7 | 18.71
318.15 K, x1 = 0.6508 | 1032.2 | 29.04
318.15 K, x1 = 0.7395 | 1053.1 | 46.03
318.15 K, x1 = 0.8502 | 1076.5 | 78.87
318.15 K, x1 = 0.9391 | 1093.7 | 114.4
318.15 K, x1 = 1 | 1104.7 | 140.18
323.15 K, x1 = 0.0816 | 836.2 | 2.63
323.15 K, x1 = 0.1604 | 870.7 | 3.1
323.15 K, x1 = 0.2391 | 902.2 | 3.84
323.15 K, x1 = 0.3502 | 942 | 5.55
323.15 K, x1 = 0.4409 | 971 | 8.02
323.15 K, x1 = 0.5592 | 1005 | 13.49
323.15 K, x1 = 0.6508 | 1028.7 | 21.63
323.15 K, x1 = 0.7395 | 1049.5 | 36.13
323.15 K, x1 = 0.8502 | 1073.1 | 63.1
323.15 K, x1 = 0.9391 | 1090.4 | 91.12
323.15 K, x1 = 1 | 1101.6 | 110.94
